Source: ChEMBL document CHEMBL3390834, “Development of second generation epigenetic agents” (Medchemcomm, 2012)

Columns and labels:
[1] = target: Histone deacetylase 1 (Homo sapiens, UniProt Q13547)
Description: Inhibition of HDAC-1 (unknown origin) using (FAM)-labeled acetylated peptide as substrate after 17 hrs by fluorescence assay

[2] = target: Histone deacetylase 2 (Homo sapiens, UniProt Q92769); experiment: Inhibition of HDAC-2 (unknown origin) using (FAM)-labeled acetylated peptide as substrate after 17 hrs by fluorescence assay
[3] = target: Histone deacetylase 3 (Homo sapiens, UniProt O15379); experiment: Inhibition of HDAC-3 (unknown origin) using (FAM)-labeled acetylated peptide as substrate after 17 hrs by fluorescence assay
[4] = target: T1, Lysine-specific histone demethylase 1A (Homo sapiens, UniProt O60341); experiment: Inhibition of N-terminal His-6-tagged full length human LSD-1 expressed in Escherichia coli BL21 (DE3) using H3K4me2 peptide as substrate at 1 uM by Western blotting analysis relative to control
[5] = target: T2, Histone acetyltransferase p300 (Homo sapiens, UniProt Q09472)
Description: (§1) Inhibition of His6-tagged recombinant full length p300 (unknown origin) expressed in baculovirus infected insect Sf21 cells using [3H]acetyl-CoA as substrate preincubated for 10 mins followed by substrate addition measured after 10 mins by liquid scintillation counting analysis

[6] = target: T3, Lysine-specific demethylase 4E (Homo sapiens, UniProt B2RXH2)
T3 sequence (B2RXH2 whole entry): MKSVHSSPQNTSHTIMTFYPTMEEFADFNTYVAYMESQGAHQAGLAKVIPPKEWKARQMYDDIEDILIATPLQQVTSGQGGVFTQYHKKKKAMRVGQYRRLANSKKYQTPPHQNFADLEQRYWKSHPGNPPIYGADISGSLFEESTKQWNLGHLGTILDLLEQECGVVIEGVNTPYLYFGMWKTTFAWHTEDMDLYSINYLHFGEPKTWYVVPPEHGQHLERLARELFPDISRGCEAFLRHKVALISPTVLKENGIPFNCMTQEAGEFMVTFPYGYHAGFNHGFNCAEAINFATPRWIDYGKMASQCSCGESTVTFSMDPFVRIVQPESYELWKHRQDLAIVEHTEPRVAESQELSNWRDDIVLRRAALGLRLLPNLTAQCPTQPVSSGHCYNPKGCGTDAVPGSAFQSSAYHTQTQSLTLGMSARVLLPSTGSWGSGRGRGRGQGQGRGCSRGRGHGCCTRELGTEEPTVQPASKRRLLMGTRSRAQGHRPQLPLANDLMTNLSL
Description: Inhibition of N-terminal His-6-tagged human JMJD2E (1 to 337 residues) expressed in Escherichia coli by MALDI-TOF/MS analysis

[7] = Inhibition of DIM-5 (unknown origin)
[8] = target: Histone-lysine N-methyltransferase SUV39H1 (Homo sapiens, UniProt O43463); experiment: Inhibition of SUV39H1 (unknown origin) by DELFIA
[9] = target: Histone-lysine N-methyltransferase EHMT2 (Homo sapiens, UniProt Q96KQ7)
Description: Inhibition of recombinant GST-tagged G9a (685 to 1000 amino acids) (unknown origin) expressed in Escherichia coli BL21 using biotinylated histone H3 peptide as substrate by DELFIA

[10] = target: T4, NAD-dependent protein deacetylase sirtuin-1 (Homo sapiens, UniProt Q96EB6); experiment: Inhibition of human SIRT-1
[11] = target: T5, NAD-dependent protein deacetylase sirtuin-2 (Homo sapiens, UniProt Q8IXJ6); experiment: Inhibition of human SIRT-2
T5 sequence (Q8IXJ6 whole entry): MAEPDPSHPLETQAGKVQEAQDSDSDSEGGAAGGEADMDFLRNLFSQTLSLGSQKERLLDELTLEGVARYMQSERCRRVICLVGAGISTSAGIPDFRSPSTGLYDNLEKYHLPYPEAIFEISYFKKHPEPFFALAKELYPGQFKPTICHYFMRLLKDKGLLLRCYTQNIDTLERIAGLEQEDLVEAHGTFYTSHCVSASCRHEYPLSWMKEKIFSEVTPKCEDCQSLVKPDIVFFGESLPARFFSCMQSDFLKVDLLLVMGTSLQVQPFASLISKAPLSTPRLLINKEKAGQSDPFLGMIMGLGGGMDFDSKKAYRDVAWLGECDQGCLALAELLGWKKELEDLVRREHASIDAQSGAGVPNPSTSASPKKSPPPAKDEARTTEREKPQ

[12] = target: T1, Lysine-specific histone demethylase 1A; experiment: Inhibition of human LSD-1 by fluorescence-based assay
[13] = species: Homo sapiens; experiment: Selectivity ratio of IC50 for SET7 (unknown origin) to IC50 for human recombinant PRMT-2
[14] = target: Protein arginine N-methyltransferase 1 (Homo sapiens, UniProt Q99873); experiment: Inhibition of human recombinant PRMT-1 using Npl3p as substrate
[15] = species: Homo sapiens; experiment: Selectivity ratio of IC50 for human CARM-1 to IC50 for human recombinant PRMT-1
[16] = target: Histone acetyltransferase KAT2B (Homo sapiens, UniProt Q92831); experiment: Inhibition of FLAG epitope-tagged recombinant human PCAF expressed in baculovirus infected insect Sf21 cells using [3H]acetyl-CoA as substrate preincubated for 10 mins followed by substrate addition measured after 10 mins by liquid scintillation counting analysis
[17] = target: T2, Histone acetyltransferase p300; experiment: biochemical
Description: as §1

[18] = Growth inhibition of human KYSE-150 cells after 48 hrs; type: functional; conditions: KYSE-150, 48 h
[19] = target: T4, NAD-dependent protein deacetylase sirtuin-1; experiment: Inhibition of recombinant human GST-tagged SIRT-1 using ZMAL as substrate after 4 hrs by homogeneous fluorescent deacetylase assay
[20] = target: Histone deacetylase; experiment: Inhibition of HDAC isolated from human HeLa cell nuclear extracts using Fluor de Lys as substrate after 30 mins by fluorescence assay; type: protein assay
[21] = Inhibition of yeast Sir2p HAD activity using [3H]-acetylated histone H4 as substrate assessed as release of free [3H]-acetate after 16 hrs; set-up: species or system Saccharomyces cerevisiae
[22] = target: T1, Lysine-specific histone demethylase 1A; experiment: Inhibition of LSD-1 (unknown origin)
[23] = species: Homo sapiens; experiment: Selectivity ratio of IC50 for MAO-B (unknown origin) to IC50 for LSD-1 (unknown origin)
[24] = Inhibition of HAT isolated from human HeLa cell nuclear extracts using biotinylated histone H4 peptide as substrate after 8 mins

T2 sequence (Q09472 whole entry): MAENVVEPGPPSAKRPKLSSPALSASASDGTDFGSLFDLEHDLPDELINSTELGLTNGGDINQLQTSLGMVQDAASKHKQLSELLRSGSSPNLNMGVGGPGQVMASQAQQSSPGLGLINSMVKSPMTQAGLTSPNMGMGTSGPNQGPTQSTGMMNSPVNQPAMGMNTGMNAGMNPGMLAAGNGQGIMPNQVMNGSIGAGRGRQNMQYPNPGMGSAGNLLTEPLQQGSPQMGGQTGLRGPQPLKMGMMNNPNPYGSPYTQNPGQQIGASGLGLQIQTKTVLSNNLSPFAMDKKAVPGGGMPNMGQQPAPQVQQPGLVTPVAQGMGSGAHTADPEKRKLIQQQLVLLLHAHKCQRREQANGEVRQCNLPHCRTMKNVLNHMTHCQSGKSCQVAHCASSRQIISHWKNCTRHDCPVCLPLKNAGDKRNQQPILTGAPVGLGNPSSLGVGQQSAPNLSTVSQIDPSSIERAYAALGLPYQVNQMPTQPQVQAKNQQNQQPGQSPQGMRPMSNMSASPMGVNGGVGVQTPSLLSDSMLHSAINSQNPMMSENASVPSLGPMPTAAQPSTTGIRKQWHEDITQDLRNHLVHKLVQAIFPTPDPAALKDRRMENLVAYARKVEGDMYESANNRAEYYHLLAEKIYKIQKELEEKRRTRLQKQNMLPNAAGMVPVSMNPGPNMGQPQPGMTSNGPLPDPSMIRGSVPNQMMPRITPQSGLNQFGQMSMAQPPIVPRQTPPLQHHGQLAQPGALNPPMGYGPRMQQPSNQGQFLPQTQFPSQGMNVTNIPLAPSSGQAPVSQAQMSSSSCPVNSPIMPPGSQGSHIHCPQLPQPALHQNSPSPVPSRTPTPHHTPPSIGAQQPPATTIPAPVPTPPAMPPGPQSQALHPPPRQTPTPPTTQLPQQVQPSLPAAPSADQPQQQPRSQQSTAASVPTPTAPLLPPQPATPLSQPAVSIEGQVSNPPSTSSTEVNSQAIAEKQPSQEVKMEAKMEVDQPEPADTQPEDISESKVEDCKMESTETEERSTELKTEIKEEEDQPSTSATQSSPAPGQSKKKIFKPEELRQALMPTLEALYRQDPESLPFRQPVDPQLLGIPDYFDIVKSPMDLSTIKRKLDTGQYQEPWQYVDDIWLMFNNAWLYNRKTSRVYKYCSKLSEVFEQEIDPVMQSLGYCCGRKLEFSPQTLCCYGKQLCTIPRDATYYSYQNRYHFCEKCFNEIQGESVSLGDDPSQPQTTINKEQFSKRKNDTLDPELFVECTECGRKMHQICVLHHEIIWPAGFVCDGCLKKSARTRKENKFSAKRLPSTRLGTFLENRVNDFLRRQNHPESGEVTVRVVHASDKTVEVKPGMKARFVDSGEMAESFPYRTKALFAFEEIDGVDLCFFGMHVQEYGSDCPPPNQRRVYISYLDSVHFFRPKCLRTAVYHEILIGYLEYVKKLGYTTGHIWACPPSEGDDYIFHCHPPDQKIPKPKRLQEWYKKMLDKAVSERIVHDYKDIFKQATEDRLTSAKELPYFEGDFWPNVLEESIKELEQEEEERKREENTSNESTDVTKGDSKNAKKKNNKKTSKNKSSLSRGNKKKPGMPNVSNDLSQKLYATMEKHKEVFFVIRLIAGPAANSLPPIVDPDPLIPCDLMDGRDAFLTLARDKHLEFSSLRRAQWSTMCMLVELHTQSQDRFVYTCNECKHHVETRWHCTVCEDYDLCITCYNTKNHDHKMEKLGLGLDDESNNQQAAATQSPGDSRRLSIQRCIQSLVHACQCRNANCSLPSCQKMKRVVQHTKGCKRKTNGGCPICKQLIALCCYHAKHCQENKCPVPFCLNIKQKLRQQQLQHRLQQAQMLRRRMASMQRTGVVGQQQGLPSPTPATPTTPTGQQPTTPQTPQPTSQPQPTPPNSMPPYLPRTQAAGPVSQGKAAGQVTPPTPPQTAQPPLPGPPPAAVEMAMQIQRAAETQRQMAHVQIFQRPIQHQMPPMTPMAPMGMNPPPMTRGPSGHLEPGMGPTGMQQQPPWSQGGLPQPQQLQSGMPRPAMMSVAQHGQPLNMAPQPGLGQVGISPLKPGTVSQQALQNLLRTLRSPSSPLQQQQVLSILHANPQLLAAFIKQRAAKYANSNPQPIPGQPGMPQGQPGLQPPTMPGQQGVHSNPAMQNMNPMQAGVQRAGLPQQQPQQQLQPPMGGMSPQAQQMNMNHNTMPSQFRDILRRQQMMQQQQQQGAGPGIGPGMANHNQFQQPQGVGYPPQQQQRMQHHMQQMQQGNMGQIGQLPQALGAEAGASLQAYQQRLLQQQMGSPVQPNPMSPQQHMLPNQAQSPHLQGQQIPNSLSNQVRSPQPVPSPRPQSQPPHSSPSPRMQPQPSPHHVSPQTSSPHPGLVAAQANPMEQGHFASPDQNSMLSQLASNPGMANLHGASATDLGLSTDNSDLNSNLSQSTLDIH
T4 sequence (Q96EB6 whole entry): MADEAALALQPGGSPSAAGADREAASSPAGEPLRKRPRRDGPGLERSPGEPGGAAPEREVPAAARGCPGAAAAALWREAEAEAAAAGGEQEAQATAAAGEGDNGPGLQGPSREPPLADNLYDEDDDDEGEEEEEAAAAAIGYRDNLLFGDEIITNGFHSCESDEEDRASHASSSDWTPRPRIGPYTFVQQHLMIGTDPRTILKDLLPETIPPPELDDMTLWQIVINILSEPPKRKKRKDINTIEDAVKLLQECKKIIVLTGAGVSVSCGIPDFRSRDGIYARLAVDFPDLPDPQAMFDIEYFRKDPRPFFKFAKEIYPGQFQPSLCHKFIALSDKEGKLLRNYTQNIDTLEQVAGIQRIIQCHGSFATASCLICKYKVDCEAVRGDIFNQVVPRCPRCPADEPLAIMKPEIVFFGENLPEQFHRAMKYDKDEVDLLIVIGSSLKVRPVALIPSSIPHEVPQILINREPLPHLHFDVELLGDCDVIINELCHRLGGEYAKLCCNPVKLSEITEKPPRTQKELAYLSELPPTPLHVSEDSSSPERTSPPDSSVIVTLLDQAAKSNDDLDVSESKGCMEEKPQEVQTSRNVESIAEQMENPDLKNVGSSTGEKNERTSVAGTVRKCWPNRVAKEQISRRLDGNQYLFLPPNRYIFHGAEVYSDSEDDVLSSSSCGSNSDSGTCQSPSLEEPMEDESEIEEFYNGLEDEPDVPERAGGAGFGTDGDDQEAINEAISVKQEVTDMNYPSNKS
Sequence of Histone deacetylase 1 (Q13547 whole entry): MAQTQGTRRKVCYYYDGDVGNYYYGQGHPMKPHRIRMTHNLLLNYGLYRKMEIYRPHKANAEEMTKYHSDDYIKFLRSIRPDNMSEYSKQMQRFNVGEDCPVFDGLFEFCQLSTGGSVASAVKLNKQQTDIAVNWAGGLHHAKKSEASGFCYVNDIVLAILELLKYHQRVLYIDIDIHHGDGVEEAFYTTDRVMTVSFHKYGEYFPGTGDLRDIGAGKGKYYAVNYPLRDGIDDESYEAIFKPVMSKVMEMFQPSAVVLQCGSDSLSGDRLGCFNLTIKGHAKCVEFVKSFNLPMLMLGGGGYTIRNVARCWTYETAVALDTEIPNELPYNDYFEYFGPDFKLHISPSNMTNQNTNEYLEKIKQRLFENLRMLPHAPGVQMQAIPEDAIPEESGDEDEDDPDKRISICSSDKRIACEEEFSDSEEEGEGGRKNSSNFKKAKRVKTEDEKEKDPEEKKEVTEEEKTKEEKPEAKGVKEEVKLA
Sequence of Histone acetyltransferase KAT2B (Q92831 whole entry): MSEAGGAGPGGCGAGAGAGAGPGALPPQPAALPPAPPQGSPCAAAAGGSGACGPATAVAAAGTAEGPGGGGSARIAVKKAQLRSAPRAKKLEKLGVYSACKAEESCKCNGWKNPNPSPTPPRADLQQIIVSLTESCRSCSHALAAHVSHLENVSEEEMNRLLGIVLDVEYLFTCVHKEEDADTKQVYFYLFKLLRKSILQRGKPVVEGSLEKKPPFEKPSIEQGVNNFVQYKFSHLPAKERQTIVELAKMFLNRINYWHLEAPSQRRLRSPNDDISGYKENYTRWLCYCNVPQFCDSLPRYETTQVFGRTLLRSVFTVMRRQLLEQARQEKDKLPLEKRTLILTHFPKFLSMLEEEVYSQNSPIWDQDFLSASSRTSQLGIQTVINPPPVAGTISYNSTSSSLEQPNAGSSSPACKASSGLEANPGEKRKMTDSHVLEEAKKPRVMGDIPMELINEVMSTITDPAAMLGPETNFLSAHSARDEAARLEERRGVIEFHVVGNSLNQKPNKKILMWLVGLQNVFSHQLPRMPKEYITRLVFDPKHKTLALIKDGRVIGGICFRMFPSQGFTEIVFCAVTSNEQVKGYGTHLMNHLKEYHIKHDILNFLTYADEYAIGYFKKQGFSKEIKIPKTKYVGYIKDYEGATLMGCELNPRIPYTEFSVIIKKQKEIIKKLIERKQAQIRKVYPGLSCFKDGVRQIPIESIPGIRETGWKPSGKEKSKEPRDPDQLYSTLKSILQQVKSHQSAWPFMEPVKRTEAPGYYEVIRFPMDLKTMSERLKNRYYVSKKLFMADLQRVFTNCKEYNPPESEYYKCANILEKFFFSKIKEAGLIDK
Sequence of Histone deacetylase 3 (O15379 whole entry): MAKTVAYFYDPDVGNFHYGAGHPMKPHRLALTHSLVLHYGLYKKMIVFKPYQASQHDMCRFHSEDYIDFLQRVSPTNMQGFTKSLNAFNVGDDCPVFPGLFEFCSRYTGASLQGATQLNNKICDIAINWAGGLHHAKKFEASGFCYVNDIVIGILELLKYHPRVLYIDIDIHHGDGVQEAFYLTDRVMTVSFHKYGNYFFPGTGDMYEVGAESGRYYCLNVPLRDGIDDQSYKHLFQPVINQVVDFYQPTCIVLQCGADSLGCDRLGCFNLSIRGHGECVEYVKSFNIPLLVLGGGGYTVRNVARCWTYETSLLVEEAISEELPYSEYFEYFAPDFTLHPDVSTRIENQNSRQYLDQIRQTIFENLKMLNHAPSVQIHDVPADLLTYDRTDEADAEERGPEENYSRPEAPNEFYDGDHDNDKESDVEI

## Nc1ccccc1NC(=O)CCCCCCC(=O)Nc1ccccc1N
[1]
  IC50: 14.6 µM
[2]
  IC50: 4.8 µM
[3]
  IC50: 0.988 µM

## N=C(NCCCNCCCCCCCNCCCNC(=N)NC(=N)NCCC(c1ccccc1)c1ccccc1)NC(=N)NCCC(c1ccccc1)c1ccccc1
[4]
  inhibition: > 50%

## C=C(C)[C@@H](CC=C(C)C)C[C@@]12C[C@@H](CC=C(C)C)C(C)(C)[C@@](CC=C(C)C)(C(=O)C(C(=O)c3ccc(O)c(O)c3)=C1O)C2=O [GARCINOL]
[5]
  IC50: 7 µM

## Oc1ccc(C2CNCCc3c2cc(O)c(O)c3Cl)cc1 (stereo unspecified) [FENOLDOPAM]
[6]
  IC50: 3 µM

## C/N=C(\NC)NCCCNCCCNCCCN/C(=N/C)NC
[4]
  inhibition: > 50%

## CN1C(=O)[C@@]23C[C@]4([C@]56C[C@@]78SS[C@@](CO)(C(=O)N7[C@H]5Nc5ccccc56)N(C)C8=O)c5ccccc5N[C@@H]4N2C(=O)[C@]1(CO)SS3 [CHAETOCIN]
[7]
  IC50: 3 µM

## COc1ccc(C(=O)Oc2ccc(CCn3c(NC(=O)c4ccc(C(F)(F)F)cc4)nc4cc(C(=O)O)ccc43)cc2)cc1
[8]
  IC50: 1.1 µM
[9]
  IC50: 4.7 µM

## CC(C)=CCC/C(C)=C/C[C@@H]1C[C@@]2(CC=C(C)C)C(=O)[C@](CC=C(C)C)(C(=O)C(C(=O)c3ccc(O)c(O)c3)=C2O)[C@@]1(C)CCC=C(C)C
[10]
  IC50: 9 µM
[11]
  IC50: 22 µM

## O=C(O)/C=C/C(=O)N(O)CCCCNCc1ccc(COC(=O)Nc2cccc3ccccc23)cc1
[12]
  IC50: 620 µM

## O=C(/C=C/c1ccc(O)c(Br)c1)/C=C/c1cc(Br)c(O)c(Br)c1
[13]
  Ratio IC50: 10
[14]
  IC50: 3 µM
[15]
  Ratio IC50: 30

## NCCc1ccc(O)c(O)c1 [DOPAMINE]
[6]
  IC50: 3 µM

## CCCCCCCCCCCCCCCc1cccc(O)c1C(=O)O [ANACARDIC ACID]
[16]
  IC50: 5 µM
[17]
  IC50: 8.5 µM

## COC(=O)/C=C/C(=O)N(O)CCCCNCc1ccc(COC(=O)Nc2cccc3ccccc23)cc1
[18]
  GI50: 5.1 µM

## O=C1NC(=S)NC(=O)C1=Cc1cc2ccccc2[nH]1
[19]
  IC50: 5.9 µM

## O=C(CSSCC(=O)c1ccc(Br)cc1)c1ccc(Br)cc1
[20]
  IC50: 0.135 µM

## O=C1CCc2c(ccc3ccccc23)O1 [SPLITOMICIN]
[21]
  IC50: 60 µM

## NC1CC1c1c(F)cc(F)cc1OCc1ccccc1 (stereo unspecified)
[22]
  IC50: 0.99 µM
[23]
  Ratio IC50: > 250

## CCCCCCCCCCCCCC(Oc1cccc(OCc2ccccc2)c1)C(=O)O (stereo unspecified)
[24]
  IC50: 6 µM
